According to patent US9783536B2, “Nitrogen-containing heterocyclic compound or salt thereof” (FUJIFILM Corporation, priority 2013, dated 2017):
Like-named read-outs stand apart in the source and are kept apart here.

Experiments:
human PI3Kα protein = target: T1, human PI3Kα protein (Homo sapiens, UniProt P42336); experiment: PI3Kα enzyme assay (ADP-Glo); format: biochemical; details: read-out: PI3Kα enzyme inhibitory activity
T1 construct: purchased Carna Biosciences, Inc; host or cells: baculovirus expression system
Procedure, shortened: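 Biotinylated human PI3Kα (baculovirus-expressed, 4.5 nmol/L) pre-incubated 15 min with compound in Tris-HCl pH 7.5, MgCl2, BSA; reaction 60 min at 25° C with 50 μmol/L PIP2 and 100 μmol/L ATP final. ADP quantified by ADP-Glo luminescence; IC50 calculated.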

[1] = target: T2, GST fusion human ERK2 protein (Homo sapiens, UniProt P28482); experiment: ERK2 enzyme assay (2); format: biochemical; details: read-out: ERK2 enzyme inhibitory activity (2)
T2 construct: purchased Carna Biosciences, Inc; host or cells: E. coli expression system
Procedure, shortened: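 IC50 values come from mobility-shift measurement of phosphorylated versus unphosphorylated 5-FAM peptide substrate after EDTA quench. Beforehand, compound and 1.25 nmol/L E. coli-expressed GST–human ERK2 stood 15 min at room temperature (pH 7.5), then 1 mmol/L ATP and 4.25 μmol/L substrate (final) were added for 120 min at 25 °C.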

T1 sequence (P42336 whole entry): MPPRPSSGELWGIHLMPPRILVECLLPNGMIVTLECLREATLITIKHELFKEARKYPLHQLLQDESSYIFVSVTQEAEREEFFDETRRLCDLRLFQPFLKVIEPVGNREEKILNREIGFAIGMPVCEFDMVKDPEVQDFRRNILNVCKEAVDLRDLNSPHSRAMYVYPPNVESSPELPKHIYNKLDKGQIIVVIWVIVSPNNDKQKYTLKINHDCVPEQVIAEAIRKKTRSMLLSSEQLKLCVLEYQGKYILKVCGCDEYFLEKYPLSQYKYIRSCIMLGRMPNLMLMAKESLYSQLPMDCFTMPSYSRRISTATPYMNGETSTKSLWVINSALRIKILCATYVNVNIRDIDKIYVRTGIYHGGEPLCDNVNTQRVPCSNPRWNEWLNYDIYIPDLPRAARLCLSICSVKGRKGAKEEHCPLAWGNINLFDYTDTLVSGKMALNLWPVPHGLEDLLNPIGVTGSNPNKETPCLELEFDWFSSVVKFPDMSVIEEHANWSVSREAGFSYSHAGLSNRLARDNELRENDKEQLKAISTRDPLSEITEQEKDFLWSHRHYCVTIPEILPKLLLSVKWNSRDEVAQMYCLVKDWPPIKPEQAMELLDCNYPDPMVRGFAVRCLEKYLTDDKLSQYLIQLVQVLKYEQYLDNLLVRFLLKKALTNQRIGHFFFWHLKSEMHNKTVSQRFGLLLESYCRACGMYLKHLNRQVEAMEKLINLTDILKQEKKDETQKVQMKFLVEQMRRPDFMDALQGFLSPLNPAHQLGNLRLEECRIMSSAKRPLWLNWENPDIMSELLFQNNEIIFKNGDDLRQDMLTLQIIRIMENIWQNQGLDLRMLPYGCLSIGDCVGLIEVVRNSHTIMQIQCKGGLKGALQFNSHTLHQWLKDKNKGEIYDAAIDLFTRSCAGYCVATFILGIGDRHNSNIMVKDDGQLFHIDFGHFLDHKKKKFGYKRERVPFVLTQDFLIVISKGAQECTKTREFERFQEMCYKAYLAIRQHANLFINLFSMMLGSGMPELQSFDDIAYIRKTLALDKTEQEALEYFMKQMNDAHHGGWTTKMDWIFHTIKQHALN
T1 sequence (P27986 whole entry partner): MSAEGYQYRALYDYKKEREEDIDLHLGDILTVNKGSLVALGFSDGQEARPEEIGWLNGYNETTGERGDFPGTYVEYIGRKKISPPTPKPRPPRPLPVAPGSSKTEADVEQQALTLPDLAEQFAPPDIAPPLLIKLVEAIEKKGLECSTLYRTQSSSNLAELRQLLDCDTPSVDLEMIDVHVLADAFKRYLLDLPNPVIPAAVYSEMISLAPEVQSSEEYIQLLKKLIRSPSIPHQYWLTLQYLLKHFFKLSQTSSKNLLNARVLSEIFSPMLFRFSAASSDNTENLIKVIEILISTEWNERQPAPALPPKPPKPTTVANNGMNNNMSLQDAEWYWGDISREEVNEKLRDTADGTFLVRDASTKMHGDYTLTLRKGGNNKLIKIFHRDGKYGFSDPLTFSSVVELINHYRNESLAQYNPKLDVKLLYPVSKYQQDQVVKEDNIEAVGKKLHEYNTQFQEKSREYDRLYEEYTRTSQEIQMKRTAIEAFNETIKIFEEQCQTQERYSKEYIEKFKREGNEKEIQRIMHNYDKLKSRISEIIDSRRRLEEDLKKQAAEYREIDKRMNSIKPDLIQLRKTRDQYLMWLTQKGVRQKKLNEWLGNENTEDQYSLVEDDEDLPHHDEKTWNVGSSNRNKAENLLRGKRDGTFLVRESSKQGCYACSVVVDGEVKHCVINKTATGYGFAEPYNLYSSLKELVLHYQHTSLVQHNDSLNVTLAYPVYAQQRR
T2 sequence (P28482 whole entry, the tested form may be a part): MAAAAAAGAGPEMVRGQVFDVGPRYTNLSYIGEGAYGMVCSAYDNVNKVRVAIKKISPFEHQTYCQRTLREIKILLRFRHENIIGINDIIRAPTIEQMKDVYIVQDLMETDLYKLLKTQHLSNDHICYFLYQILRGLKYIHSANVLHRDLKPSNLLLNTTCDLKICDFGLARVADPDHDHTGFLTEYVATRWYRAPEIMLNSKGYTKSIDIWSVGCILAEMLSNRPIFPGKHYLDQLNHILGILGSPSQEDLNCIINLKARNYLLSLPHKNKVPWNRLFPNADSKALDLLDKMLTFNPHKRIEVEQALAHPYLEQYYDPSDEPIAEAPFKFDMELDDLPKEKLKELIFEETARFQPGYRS

| SMILES | IC50 (human PI3Kα protein) | IC50 ([1]; ERK2 enzyme assay (2)) | IC50 [1] |
| --- | --- | --- | --- |
| CC(C)c1cnnc(Nc2ccc3ncc(-c4cnn(CC5CCCCC5)c4)cc3n2)c1 [Example 0519, 7-(1-(Cyclohexylmethyl)-1H-pyrazol-4-yl)-N-(5-isopropylpyridazin-3-yl)-1,5-naphthyridine-2-amine] | 1 to 10 µM | < 1 µM |  |
| CC(C)c1cnnc(Nc2ccc3ncc(C4=CCN(C(=O)OC(C)(C)C)CC4)cc3n2)c1 [Example 0880, tert-butyl 4-(6-((5-isopropylpyridazin-3-yl)amino)-1,5-naphthyridin-3-yl)-5,6-dihydropyridine-1(2H)-carboxylate] | < 1 µM | < 1 µM |  |
| CC(C)c1cnnc(Nc2ccc3ncc(-c4cnn(CCCN5CCCCC5C(F)(F)F)c4)cc3n2)c1 (stereo not shown) [Example 0672] | < 1 µM | < 1 µM |  |
| Cn1cc(-c2cnc3ccc(Nc4cc(C5CC5)cnn4)nc3c2)cn1 [Example 0564] | < 1 µM | < 1 µM |  |
| CC(C)c1cnnc(Nc2ccc3ncc(C4=CCN(C(=O)N(C)C)C4)cc3n2)c1 [Example 0907, 3-(6-((5-Isopropylpyridazin-3-yl)amino)-1,5-naphthyridin-3-yl)-N,N-dimethyl-2,5-dihydro-1H-pyrrole-1-carboxamide] | < 1 µM |  | < 1 µM |
| CC(C)c1cnnc(Nc2ccc3ncc(NC(=O)CO)cc3n2)c1 [Example 0662, 2-hydroxy-N-(6-((5-isopropylpyridazin-3-yl)amino)-1,5-naphthyridin-3-yl)acetamide] | < 1 µM | 1 to 10 µM |  |
| COC1CN(CCCn2cc(-c3cnc4ccc(Nc5cc(C(C)C)cnn5)nc4c3)c(C)n2)C1 [Example 0796, N-(5-isopropylpyridazin-3-yl)-7-(1-(3-(3-methoxyazetidin-1-yl)propyl)-3-methyl-1H-pyrazol-4-yl)-1,5-naphthyridine-2-amine] | < 1 µM | < 1 µM |  |
| COC1CCN(c2cnc3ccc(Nc4cc(C(C)C)cnn4)nc3c2)C1 (stereo not shown) [Example 0895] | 1 to 10 µM | < 1 µM |  |
| CC(=O)Nc1cnc2ccc(Nc3cc(C(C)C)cnn3)nc2c1 [Example 0625, N-(6-((5-isopropylpyridazin-3-yl)amino)-1,5-naphthyridin-3-yl)acetamide] | < 1 µM | 1 to 10 µM |  |
| CC(C)c1cnnc(Nc2ccc3ncc(-c4cnn(CCCN5CC(NC(=O)C(F)(F)F)C5)c4)cc3n2)c1 [Example 0696] | < 1 µM | < 1 µM |  |
| CC(C)c1cnnc(Nc2ccc3ncc(-c4cnn(CCOC5CN(C(=O)OC(C)(C)C)C5)c4)cc3n2)c1 [Example 0739, tert-Butyl 3-(2-(4-(6-((5-isopropylpyridazin-3-yl)amino)-1,5-naphthyridin-3-yl)-1H-pyrazol-1-yl)ethoxy)azetidine-1-carboxylate] | 1 to 10 µM | < 1 µM |  |
| CC(=O)N(C)c1cnc2ccc(Nc3cc(C(C)C)cnn3)nc2c1 [Example 0628, N-(6-((5-isopropylpyridazin-3-yl)amino)-1,5-naphthyridin-3-yl)-N-methylacetamide] | 10 to 50 µM | < 1 µM |  |
| CO[C@H]1CCC[C@@H]1Nc1cnc2ccc(Nc3cc(C(C)C)cnn3)nc2c1 [Example 0894] | < 1 µM | 1 to 10 µM |  |
| Cc1c(-c2cnn(C)c2)cnc2ccc(Nc3cc(C(C)C)cnn3)nc12 [Example 0850, N-(5-isopropylpyridazin-3-yl)-8-methyl-7-(1-methyl-1H-pyrazol-4-yl)-1,5-naphthyridine-2-amine] | < 1 µM | < 1 µM |  |
| CC(C)c1cnnc(Nc2ccc3ncc(-c4cnn(CC(=O)N5CCOCC5)c4)cc3n2)c1 [Example 0558] | < 1 µM | < 1 µM |  |
| CC(C)c1cnnc(Nc2ccc3ncc(-c4cnn(CC(O)CN5CCOCC5)c4)cc3n2)c1 (stereo not shown) [Example 0729] | < 1 µM | < 1 µM |  |
| Cc1cncc(-c2nn(C)cc2-c2cnc3ccc(Nc4cc(C(C)C)cnn4)nc3c2)c1 [Example 0555] | < 1 µM | < 1 µM |  |
| CC(C)c1cnnc(Nc2ccc3ncc(-c4cnn(CC5CCN(C(=O)N(C)C)CC5)c4)cc3n2)c1 [Example 0529] | < 1 µM | < 1 µM |  |
| CC(C)c1cnnc(Nc2ccc3ncc(-c4cnn(CCCN5CCC(C(F)(F)F)CC5)c4)cc3n2)c1 [Example 0673] | < 1 µM | < 1 µM |  |
| CC(C)c1cnnc(Nc2ccc3ncc(C4=CCN(C(=O)N(C)C)CC4)cc3n2)c1 [Example 0883, 4-(6-((5-Isopropylpyridazin-3-yl)amino)-1,5-naphthyridin-3-yl)-N,N-dimethyl-5,6-dihydropyridine-1(2H)-carboxamide] | < 1 µM | < 1 µM |  |
| Cn1cc(-c2cnc3ccc(Nc4cc(C(C)(C)O)cnn4)nc3c2)cn1 [Example 0543, 2-(6-((7-(1-Methyl-1H-pyrazol-4-yl)-1,5-naphthyridin-2-yl)amino)pyridazin-4-yl)propan-2-ol] | < 1 µM | < 1 µM |  |
| Cc1nn(C)cc1-c1cnc2ccc(Nc3cn(C(C)C)cn3)nc2c1 [Example 0950, 7-(1,3-dimethyl-1H-pyrazol-4-yl)-N-(1-isopropyl-1H-imidazol-4-yl)-1,5-naphthyridine-2-amine] | < 1 µM |  | 1 to 10 µM |

| SMILES | IC50 (human PI3Kα protein) | IC50 ([1]; ERK2 enzyme assay (2)) | IC50 [1] |
| --- | --- | --- | --- |
| COc1cncc(-c2nn(C)cc2-c2cnc3ccc(Nc4cc(C(C)C)cnn4)nc3c2)c1 [Example 0451] | < 1 µM | < 1 µM |  |
| CCC(CC)c1cnnc(Nc2ccc3ncc(-c4cn(C)nc4C)cc3n2)c1 [Example 0769] | < 1 µM | < 1 µM |  |
| CC(C)c1cnnc(Nc2ccc3ncc(-c4cnn(CC(F)CN5CCCC5)c4)cc3n2)c1 (stereo not shown) [Example 0727] | < 1 µM | < 1 µM |  |
| Cc1ccncc1-c1nn(C)cc1-c1cnc2ccc(Nc3cc(C(C)C)cnn3)nc2c1 [Example 0736] | < 1 µM | 1 to 10 µM |  |
| CC(C)c1cnnc(Nc2ccc3ncc(-c4cn(C)nc4-c4ccc(N(C)C)nc4)cc3n2)c1 [Example 0793] | < 1 µM | 1 to 10 µM |  |
| CC(C)c1cnnc(Nc2ccc3ncc(-c4cn(C)nc4Br)cc3n2)c1 [Example 0931] | < 1 µM |  | < 1 µM |
| CC(C)c1cnnc(Nc2ccc3ncc(-c4cn(C)nc4-c4ccc(CN(C)C)cc4)cc3n2)c1 [Example 0768] | < 1 µM | 1 to 10 µM |  |
| CC(C)c1cnnc(Nc2ccc3ncc(N4CC5(CCO5)C4)cc3n2)c1 [Example 0856] | 1 to 10 µM | < 1 µM |  |
| CC(C)c1cnnc(Nc2ccc3ncc(-c4cnn(CCOC5CN(C)C5)c4)cc3n2)c1 [Example 0741, N-(5-isopropylpyridazin-3-yl)-7-(1-(2-((1-methylazetidin-3-yl)oxy)ethyl)-1H-pyrazol-4-yl)-1,5-naphthyridine-2-amine] | < 1 µM | < 1 µM |  |
| Cc1nn(C)cc1-c1cnc2ccc(Nc3cc(C4CCCCC4)cnn3)nc2c1 [Example 0926, N-(5-cyclohexylpyridazin-3-yl)-7-(1,3-dimethyl-1H-pyrazol-4-yl)-1,5-naphthyridine-2-amine] | < 1 µM |  | < 1 µM |
| CC(C)c1cnnc(Nc2ccc3ncc(-n4cnc(CO)c4)cc3n2)c1 [Example 0497, (1-(6-((5-isopropylpyridazin-3-yl)amino)-1,5-naphthyridin-3-yl)-1H-imidazol-4-yl)methanol] | 1 to 10 µM | < 1 µM |  |
| Cc1cnnc(Nc2ccc3nccc(-c4cnn(C)c4)c3n2)c1 [Example 0448, 8-(1-Methyl-1H-pyrazol-4-yl)-N-(5-methylpyridazin-3-yl)-1,5-naphthyridine-2-amine] | < 1 µM | 1 to 10 µM |  |
| CC(C)c1cnnc(Nc2ccc3ncc(-c4cnn(C(C)C)c4)cc3n2)c1 [Example 0442] | < 1 µM | < 1 µM |  |
| COC(CN1CCOCC1)Cn1cc(-c2cnc3ccc(Nc4cc(C(C)C)cnn4)nc3c2)cn1 (stereo not shown) [Example 0730] | < 1 µM | < 1 µM |  |
| CC(C)c1cnnc(Nc2ccc3ncc(-c4cnn(CCCN5CCOC(C)(C)C5)c4)cc3n2)c1 [Example 0658] | < 1 µM | < 1 µM |  |
| CC(C)c1cnnc(Nc2ccc3ncc(-c4cnn(CC5CCN(C(=O)C6CCCCC6)CC5)c4)cc3n2)c1 [Example 0538] | < 1 µM | < 1 µM |  |
| CC(C)c1cnnc(Nc2ccc3ncc(C4=CCNC4)cc3n2)c1 [Example 0906, 7-(2,5-Dihydro-1H-pyrrol-3-yl)-N-(5-isopropylpyridazin-3-yl)-1,5-naphthyridine-2-amine] | 1 to 10 µM |  | < 1 µM |
| CC(C)c1cnnc(Nc2ccc3ncc(-c4cnn(CCCN5CC(Oc6ccccc6)C5)c4)cc3n2)c1 [Example 0715, N-(5-isopropylpyridazin-3-yl)-7-(1-(3-(3-phenoxyazetidin-1-yl)propyl)-1H-pyrazol-4-yl)-1,5-naphthyridine-2-amine] | < 1 µM | < 1 µM |  |
| CC(C)c1cnnc(Nc2ccc3ncc(-c4cn(C)nc4NC4CNC4)cc3n2)c1 [Example 0826] | < 1 µM | < 1 µM |  |
| CCC1CN(CCCn2cc(-c3cnc4ccc(Nc5cc(C(C)C)cnn5)nc4c3)cn2)CCO1 (stereo not shown) [Example 0684] | < 1 µM | < 1 µM |  |
| CC(C)c1cnnc(Nc2ccc3ncc(-c4cn(C)nc4NCc4cnn(C)c4)cc3n2)c1 [Example 0836] | < 1 µM | 1 to 10 µM |  |
| CC(C)c1cnnc(Nc2ccc3ncc(/C=C/c4ccccn4)cc3n2)c1 [Example 0656, (E)-N-(5-isopropylpyridazin-3-yl)-7-(2-(pyridin-2-yl)vinyl)-1,5-naphthyridine-2-amine] | < 1 µM | 1 to 10 µM |  |
